Converted amounts (≈) assume the structure as drawn.
Details: 3 h
Experimental: The synthesized cathode mixtures were rolled with a stainless steel (SUS) rod and cut to a size of 1.5 cm×1.5 cm to produce cathodes for secondary batteries.
The cathodes produced in Embodiment 2 were put in 4 mL of a tetraethyleneglycol dimethylether (TEGDME) solvent, and stored in a 60° C. oven for 3 hours, and then solubilities of the cathode active materials for a solvent in an electrolyte were measured through ultraviolet-visible (UV-Vis) spectroscopy by using the used solvent.

solubility	Compound
9.087 mM (≈ 1640 µg/mL)	c1ccc2nc3ccccc3nc2c1 [compound 1, phenazine]
5.625 mM (≈ 1150 µg/mL)	N#CC(C#N)=c1ccc(=C(C#N)C#N)cc1 [compound 2, 7,7,8,8-tetracyanoquinodimethane]
